Legend:
humanized OX2 receptor = target: T1, humanized OX2 receptor (Homo sapiens, UniProt O43614); experiment: Antagonistic effect on humanized OX2 receptor, calcium flux by fluorescence detection in HEK-293 cells; type: cell-based; conditions: HEK-293 cells, calcium flux induced by 10 nM orexin B; read-out: OX2 IC50
T1 construct: expressed in transfected cells; host or cells: HEK-293 cells
T1 sequence (O43614 1-444): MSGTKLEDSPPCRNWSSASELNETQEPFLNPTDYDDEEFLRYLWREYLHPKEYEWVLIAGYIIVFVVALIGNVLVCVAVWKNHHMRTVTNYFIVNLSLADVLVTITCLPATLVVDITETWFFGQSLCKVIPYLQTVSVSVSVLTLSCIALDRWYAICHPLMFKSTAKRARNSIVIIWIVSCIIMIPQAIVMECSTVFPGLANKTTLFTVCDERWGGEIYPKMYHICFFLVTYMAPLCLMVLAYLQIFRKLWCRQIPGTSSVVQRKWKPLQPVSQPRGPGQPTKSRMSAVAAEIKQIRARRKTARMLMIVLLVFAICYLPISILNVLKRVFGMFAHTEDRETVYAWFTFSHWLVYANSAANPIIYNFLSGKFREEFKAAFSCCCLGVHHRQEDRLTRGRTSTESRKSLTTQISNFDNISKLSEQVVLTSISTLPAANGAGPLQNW
Experimental: The capability of the compounds provided herein to antagonize humanized OX2 receptors expressed in HEK-293 cells was evaluated by the influence of the compounds disclosed herein on calcium flux in cells induced by agonist detected by a method of fluorescence detection. The cells were suspended in DMEM culture medium (invitrogen), and then added to a microplate with an average density of 3×10^4 cells/well. The Hank's balanced salt solution (pH 7.4) containing fluorescent probes (Fluo4 NW, Invitrogen), probenecid (invitrogen), 20 mM […] (invitrogen) was added to the above microplate, and then incubated together with the cells at 37° C. for 60 min, further incubated at 22° C. for 15 min. The microplate was placed in a microplate reader (CellLux, PerkinElmer), and to which was added the test compound or reference antagonist or Hank's balanced salt solution, 5 min later, 10 nM of orexin B or Hank's balanced salt solution (as a blank contrast) was added. […] The experimental results were expressed as an inhibition percentage relative to a control group (the group with 10 nM of orexin B).
The standard reference antagonist is JNJ10397049, and IC50 values were calculated by the dose-effect curve obtained from a series of concentrations of the experimental test.

hERG channel = target: T2, hERG channel (Homo sapiens, UniProt Q12809); experiment: hERG fluorescence polarization assay (potential of inducing QT interval prolongation); type: binding
T2 construct: purchased Invitrogen
T2 sequence (Q12809 whole entry): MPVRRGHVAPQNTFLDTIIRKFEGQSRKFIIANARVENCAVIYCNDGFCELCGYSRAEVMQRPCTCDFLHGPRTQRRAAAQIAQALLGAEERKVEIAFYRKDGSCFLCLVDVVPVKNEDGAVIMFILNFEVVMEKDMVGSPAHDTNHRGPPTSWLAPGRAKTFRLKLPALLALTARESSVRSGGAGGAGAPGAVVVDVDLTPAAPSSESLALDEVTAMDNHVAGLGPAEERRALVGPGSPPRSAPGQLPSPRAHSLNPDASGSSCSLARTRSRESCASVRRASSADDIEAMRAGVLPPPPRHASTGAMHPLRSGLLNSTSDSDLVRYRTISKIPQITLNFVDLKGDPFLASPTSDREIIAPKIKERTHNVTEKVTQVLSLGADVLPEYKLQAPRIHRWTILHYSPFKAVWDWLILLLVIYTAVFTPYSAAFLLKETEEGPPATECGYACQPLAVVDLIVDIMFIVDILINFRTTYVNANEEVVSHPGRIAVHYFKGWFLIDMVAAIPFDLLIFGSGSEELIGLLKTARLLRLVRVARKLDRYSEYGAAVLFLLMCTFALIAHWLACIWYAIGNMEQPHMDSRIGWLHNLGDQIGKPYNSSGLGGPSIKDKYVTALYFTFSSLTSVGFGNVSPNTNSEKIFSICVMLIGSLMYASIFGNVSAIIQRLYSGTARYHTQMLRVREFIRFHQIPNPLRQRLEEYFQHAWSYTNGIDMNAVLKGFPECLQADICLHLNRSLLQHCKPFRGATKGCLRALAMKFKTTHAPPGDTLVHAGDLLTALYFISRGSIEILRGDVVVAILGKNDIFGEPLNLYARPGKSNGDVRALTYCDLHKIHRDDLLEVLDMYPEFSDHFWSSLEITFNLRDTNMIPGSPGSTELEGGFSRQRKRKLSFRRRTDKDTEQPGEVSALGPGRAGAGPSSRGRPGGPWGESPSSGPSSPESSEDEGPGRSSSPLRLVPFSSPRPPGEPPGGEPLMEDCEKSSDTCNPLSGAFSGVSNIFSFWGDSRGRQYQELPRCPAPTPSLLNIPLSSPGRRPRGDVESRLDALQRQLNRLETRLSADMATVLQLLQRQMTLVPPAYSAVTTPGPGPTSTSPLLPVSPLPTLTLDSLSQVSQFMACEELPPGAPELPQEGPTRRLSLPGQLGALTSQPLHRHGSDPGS
Experimental: The potential of the compound disclosed herein inducing QT interval prolongation was evaluated by detecting if the compound would block the hERG channel. The specific test method is as follows:
Precisely weighed compound disclosed herein was dissolved in DMSO to formulate a solution at the highest concentration of 10.0 mM, and then the solution was diluted to a initial concentration of 120.0 μM with hERG FP Assay Buffer (Invitrogen); the hERG Tracer Red stock solution (Invitrogen) and the positive control E-4031 stock solution (Invitrogen) were respectively diluted to initial concentrations of 4.0 nM and 120.0 μM with hERG FP Assay Buffer (Invitrogen). […]
The above-mentioned solution of the compound disclosed herein and E-4031 at the initial concentration of 120 μM were respectively diluted with hERG FP Assay Buffer 5-fold in series to provide 8 concentration of 120.0 μM, 24.0 μM, 4.8 μM, 960.0 nM, 192.0 nM, 38.4 nM, 7.7 nM and 1.5 nM. […] After that, the 384-well plate was put into an oscillator (PHMP-4, Grant-sio), in 25° C., 250 rpm, to incubate for 4 hours, and the fluorescence polarization values were measured by multi-function microplate reader (PHERAStarFS, BMG LABTECH) and corrected with the minimum and maximum fluorescence polarization values of E-4031, and the IC50 of the compound disclosed herein was calculated by GraphPad software. […]

[1] = Pharmacokinetic evaluation after intravenous or gavage administration to dogs; type: in vivo, Beagle dogs; conditions: beagle, dog, in vivo
Experimental: The compounds disclosed herein were administered in form of a saline solution containing 5% DMSO, 5% Kolliphor HS 15, 2% (2% HCl) and 88% Saline, or a solution containing 10% DMSO, 10% Kolliphor HS 15 and 80% physiological saline to the subject animals. For intravenous administration, the animals were administered with a dose of 1 mg/kg or 2 mg/kg, and vein blood samples (0.3 mL) were collected at the time points of 0.083, 0.25, 0.5, 1.0, 2.0, 4.0, 6.0, 8.0 and 24 h after drug administration; plasma samples were collected by centrifugation of the vein blood samples at 3000 rpm or 4000 rpm for 10 minutes, and stored at −20° C. or −70° C. For gavage administration, the animals were administered with a dose of 2.5 mg/kg or 5 mg/kg, and vein blood samples (0.3 mL) were collected at the time points of 0.25, 0.5, 1.0, 2.0, 4.0, 6.0, 8.0 and 24 h after drug administration; plasma samples were collected by centrifugation at 3000 rpm or 4000 rpm for 10 minutes, and stored at −20° C. or −70° C. The positive control is suvorexant.
The above plasma samples were analyzed by the LC-MS/MS system.

SMILES: Cc1ccc(-n2nccn2)c(C(=O)N2CC3CN(c4nc5cc(Cl)ccc5o4)CC3C2)c1 (stereo not drawn) [Example 1, (5-(5-chlorobenzo[d]oxazol-2-yl)hexahydropyrrolo[3,4-c]pyrrol-2(1H)-yl)(5-methyl-2-(2H-1,2,3-triazol-2-yl)phenyl)methanone]
- IC50 (humanized OX2 receptor): 0.308 µM
- IC50 (hERG channel): 3.28 µM
- AUC(0-inf) ([1]; iv, 1 mg/kg): 2710 ng·h/mL
- AUC(0-t) ([1]; iv, 1 mg/kg): 2150 ng·h/mL
- Cmax ([1]; iv, 1 mg/kg): 821 ng/mL
- MRT inf ([1]; iv, 1 mg/kg): 4.97 h
- Vd ([1]; iv, 1 mg/kg): 1.83 L/kg
- clearance ([1]; iv, 1 mg/kg): 6.14 mL/min/kg
- half-life ([1]; iv, 1 mg/kg): 3.73 h
- AUC(0-inf) ([1]; po, 5 mg/kg): 16300 ng·h/mL
- AUC(0-t) ([1]; po, 5 mg/kg): 15900 ng·h/mL
- Cmax ([1]; po, 5 mg/kg): 1410 ng/mL
- F ([1]; po, 5 mg/kg): 147.6%
- MRT inf ([1]; po, 5 mg/kg): 6.84 h
- half-life ([1]; po, 5 mg/kg): 4.41 h

Reference: patent US10370380B2, “Octahydropyrrolo[3,4-c]pyrrole derivatives and uses thereof” (Sunshine Lake Pharma Co., Ltd., priority 2015, dated 2019)
